Read-outs that look alike come from different tables or passages of the source.

The target in the assay is SARS-CoV-2 PL^pro (Severe acute respiratory syndrome coronavirus 2, UniProt P0DTD1). The assay can be described thus: SARS-CoV-2 PL^pro enzymatic inhibition assay (substrate Z-RLRGG-AMC). The format is biochemical.
The mark [1] stands for this setting: Table S2, PL^pro inhibitors, 40 nmol/L enzyme, 50 µmol/L substrate, read-out: IC50.
Where [2] appears, read: Table S6, S/KM = 1/4, read-out: IC50 (μM) at S/KM 1/4.
Setting [3] is: Table S6, S/KM = 2, read-out: IC50 (μM) at S/KM 2.
Setting [4] is: Table S6, S/KM = 4, read-out: IC50 (μM) at S/KM 4.
Setting [5] is: read-out: IC50 (μM) at S/KM 1/2.
The mark [6] stands for this setting: read-out: IC50 (μM) at S/KM 1/4.
[7] abbreviates: read-out: IC50 / inhibitory activity toward PL^pro.
The mark [8] stands for this setting: Table S3, representative dual inhibitors, read-out: IC50 for PL^pro.

On to `CCC(C(=O)NCc1ccco1)n1c(Cc2c(Cl)cccc2Cl)nc2ccccc21` (stereo not shown) [CD3226-D010], for which the IC50 runs as follows: under setting [1], 8.61 ± 3.07 µM; under setting [2], 7.6 ± 1 µM.

As for `CC(C(=O)NCc1ccco1)n1c(Cc2c(Cl)cccc2Cl)nc2ccccc21` (stereo not shown) [CD3531-C011], the IC50 amounted to 1.98 ± 0.23 µM under setting [1]; 2.4 ± 0.2 µM under setting [3]; 2.7 ± 0.1 µM under setting [4]; 2.2 ± 0.3 µM (read-out: IC50 (μM) at S/KM 1); 1.5 µM under setting [5]; 1.5 ± 0.4 µM under setting [6].

With `O=C(NCc1n[nH]c(=S)n1-c1ccc(Br)cc1)c1ccc(Cl)cc1Cl` [JK0108-D008], the IC50 worked out at 58.8 ± 15.3 µM under setting [1]; 100 ± 29.6 µM under setting [2]; 102 ± 1.2 µM (Table S6, S/KM = 1, read-out: IC50 (μM) at S/KM 1); 200 ± 47.6 µM under setting [3]; 133 ± 14.7 µM under setting [4]; 94.6 ± 11.3 µM under setting [5]. For the same compound, the IC50 under setting [7] amounted to 58.8 ± 15.3 µM.

As to `CCOc1cc(C(=O)NCc2n[nH]c(=S)n2-c2ccc(Br)cc2)cc(OCC)c1OCC` [JK0109-B004], the IC50 runs as follows: under setting [1], 43 ± 0.92 µM; under setting [8], 43 ± 0.9 µM; under setting [2], 2.4 ± 0.1 µM; under setting [3], 8.5 ± 0.9 µM; under setting [4], 18.3 ± 1 µM; (read-out: IC50 (μM) at S/KM 1) 5.9 ± 0.6 µM. In addition, under setting [5], the IC50 stood at 2.6 ± 0.5 µM.

On to `COc1ccc(-n2c(CNC(=O)COc3ccc(Cl)cc3Cl)n[nH]c2=S)cc1` [JK0109-B011], for which the IC50 runs as follows: under setting [1], 6.01 ± 0.02 µM; under setting [3], 12.4 ± 1.7 µM; (read-out: IC50 (μM) at S/KM 1) 7.3 ± 0.1 µM; under setting [5], 7.4 ± 0.6 µM; under setting [6], 7.9 ± 1.7 µM; under setting [7], 6 µM.

On to `COc1ccc(-n2c(S)nnc2CNC(=O)c2cc(OC)c(OC)c(OC)c2)cc1` [JK0109-C011], for which the IC50 turned out to be 21.2 ± 1.79 µM under setting [1]; 21.2 ± 1.8 µM under setting [8]; 10.7 ± 0.7 µM under setting [3]; 18.6 ± 2.7 µM under setting [4]; 9.4 ± 2.9 µM (read-out: IC50 (μM) at S/KM 1); 7.1 ± 0.7 µM under setting [5]. In addition, the IC50 under setting [6] is 5.9 ± 0.2 µM.

For the compound `O=C(COc1ccc(Cl)cc1)NCc1n[nH]c(=S)n1-c1ccc(Br)cc1` [JK0109-H005], the IC50 is, setting by setting: under setting [3], 78.5 ± 5.7 µM; under setting [4], 91.6 ± 8.9 µM; (read-out: IC50 (μM) at S/KM 1) 33 ± 17.9 µM; under setting [5], 21.9 ± 2 µM.

For the compound `O=c1sc2ccccc2n1Cc1n[nH]c(=S)n1-c1ccccc1` [JK0946-F007], the IC50 was found to be 105 ± 4.7 µM under setting [3], 202 ± 50.9 µM under setting [4], 43.9 ± 9 µM (read-out: IC50 (μM) at S/KM 1) and 30.3 ± 2.3 µM under setting [5].

The record behind these values is paper PMC9871955, “High-throughput screening of SARS-CoV-2 main and papain-like protease inhibitors” (Protein & Cell, 2022).
